From article PMC9740702, “Binding and Detoxification of Insecticides by Potentially Probiotic Lactic Acid Bacteria Isolated from Honeybee (Apis mellifera L.) Environment—An In Vitro Study” (Cells, 2022)
pIC50: −log10 of the molar value.

What was measured:
[1] = system: cat (Felis catus) fibroblast cells; settings: cited from earlier work
[2] = system: L. plantarum ISO; set-up: method as in PMID 28578396; settings: 295 µM, MRS medium, log phase; cited from earlier work
[3] = system: Enterococcus faecium E86, Lactococcus lactis subsp. lactis ATCC 11454, L. rhamnosus GG ATCC 53103, L. lactis Garvie ATCC 19256, Leuconostoc mesenteroides subsp.; set-up: method as in doi:10.1016/j.lwt.2019.02.037; settings: 500 mg/L; cited from earlier work
[4] = system: LAB strains; set-up: method as in PMID 28324568; settings: cited from earlier work
[5] = system: P. pentosaceus 14/1; assay: Effect of pesticides on the growth of LAB (microtitration assay); type: cell-based, Pediococcus pentosaceus; settings: 48 h incubation, versus non-exposed cells
Protocol: (§1) The experiments were conducted in transparent 96-well polystyrene microplates. The final concentrations of tested pesticides were 20, 100, and 500 µg/mL. Each well was inoculated with an overnight culture of an individual LAB strain at the density of 1.8–2.4 × 10^9 CFU/mL (6.0–8.0 according to McFarland standard). Each strain was tested in 4 replicates. Negative controls were non-exposed bacterial cells in MRS or MRS-F broth. The test was performed at 30 or 37 °C for 48 h.

[6] = system: LAB strains; assay: Binding of pesticides to the cell wall of LAB (extent of binding); settings: whole live LAB cells, initial 100 µg/mL, 24 h
Protocol: Overnight cultures of LAB in MRS/MRS-F broth were centrifuged (3864× g, 15 min), and biomass was washed with sterile ultrapure water and centrifuged again. This procedure was repeated until the MRS/MRS-F broth was completely washed. Next, the biomass of whole live LAB cells was suspended in sterile ultrapure water with an individual pesticide solution (at a final concentration of 100 µg/mL, v/v) and thoroughly mixed. The density of LAB cells was 1.8–2.4 × 10^9 CFU/mL (6.0–8.0 according to McFarland standard). The positive controls (standards) were individual pesticides without LAB strains. Negative controls were LAB strains suspended in sterile ultrapure water without pesticides. The samples were incubated anaerobically at 30 °C for 24 h with continuous orbital shaking (240 r.p.m.) (LAUDA Varioshake VS 8 OE Shaker, Dr. R. Wobser Gmbh & Co., Lauda-Königshofen, […]). Finally, the supernatants containing residual pesticide were collected by centrifugation (10,733× g, 20 min) and were filtered using sterile syringe filters (0.22 μm) and frozen in sterile vials until analysis at −20 °C.
Pesticides were analyzed according to Hafeez et al. (2015) using the HPLC-DAD technique with some modifications. For the qualitative–quantitative determination of pesticides, HPLC analysis was performed using a UHPLC+ Dionex UltiMate 3000 system (Thermo Fisher Scientific Inc., Waltham, MA, USA) equipped with a UV–Vis detector (Thermo Fisher Scientific Inc., Waltham, MA, USA) and NUCLEOSIL C18 column (4.6 × 250 mm, 5 µm particle size; Macherey-Nagel, Germany). Isocratic elution was carried out with 70/30 (v/v) acetonitrile/water as the mobile phase. The flow rate was set to 1.0 mL/min, and the column temperature was 25 °C. The injection volume was 20 µL. Detection and quantification were performed with two wavelengths: 219 nm for chlorpyrifos and coumaphos and 270 nm for imidacloprid. Quantification was performed using an external standard method. All measurements were made twice.

[7] = system: LAB; set-up: method as in earlier work; settings: concentrations above 2 ppm; cited from earlier work
[8] = system: P. acidilactici 8/1; assay: Effect of pesticides on the growth of LAB (microtitration assay); type: cell-based, Pediococcus acidilactici; settings: 100 µg/mL, 48 h incubation, versus non-exposed cells
Protocol: as §1

[9] = system: prostate epithelial WPM-Y1 cell line; set-up: method as in PMID 33456462; settings: 24 h, MTT assay; read-out: median inhibition value; cited from earlier work

## CCOC(=O)CC(SP(=S)(OC)OC)C(=O)OCC (stereo not shown) [Malathion]
[1]
  concentration at which maximum DNA damage was recorded: 45000 µM

## CCOP(=S)(OCC)Oc1nc(Cl)c(Cl)cc1Cl [chlorpyrifos]
[2]
  effect on growth of L. plantarum ISO: significantly reduced the growth
[3]
  effect on growth of LAB: did not affect the growth
[4]
  chlorpyrifos concentration at which some LAB strains were able to grow: > 1400 µg/mL
[5]; 20 µg/mL
  bacterial growth: 99.94%

## CCOP(=S)(OCC)Oc1ccc2c(C)c(Cl)c(=O)oc2c1 [coumaphos]
[6]
  pesticide binding by LAB (highest extent): up to 57%
[5]; 500 µg/mL
  bacterial growth: 100.6%

## ClC1=C(Cl)C2(Cl)C3C4CC(C5OC45)C3C1(Cl)C2(Cl)Cl (stereo not shown) [endrin]
[7]
  effect on lactic acid production by LAB: completely inhibited

## O=[N+]([O-])NC1=NCCN1Cc1ccc(Cl)nc1 [imidacloprid]
[8]
  bacterial growth: 101.84%
[6]
  pesticide binding by LAB (highest extent): ≤ 36%
[6]; listed as Imidacloprid
  pesticide binding by LAB (highest extent): about 36%
[9]
  pIC50: 4.64

## Cl[C@H]1[C@H](Cl)[C@@H](Cl)[C@@H](Cl)[C@H](Cl)[C@H]1Cl [lindane]
[7]
  effect on lactic acid production by LAB: completely inhibited
